Data published in patent US8603976B2, “Methods of enhancing functioning of the large intestine” (1149336 Ontario, Inc., priority 1997, dated 2013).

What was measured:
Format in all cases: in vivo
Female CD1 mice [1] = assay: Effect of GLP-2 on small and large intestinal mass and protein content in mice (Example 1); details: 2.5 μg twice daily subcutaneously for 10 days
Experimental: In this experiment, the effect of GLP-2 on both small and large intestinal mass, as well as the relative contribution of water to the increment in intestine weight, was examined.
Female CD1 mice (6 weeks old) were treated with rat GLP-2, 2.5 μg twice daily (subcutaneously) for 10 days. Following treatment, mice were fasted 24 hours, anesthetized with CO2 and sacrificed. The small and large intestine was removed from the peritoneal cavity (from pylorus to cecum), cleaned, weighed and measured. For comparative purposes, 2 cm segments of proximal jejunum, ileum and colon were obtained from each animal from the identical anatomical positions (as measured from the pylorus and cecum) and analyzed for protein content, wet weight and dry weight (expressed as mean±S.E.M in mg/2 cm segment).
For protein content, two 2 cm segments from the proximal jejunum, ileum and colon were removed, placed in 13 ml tubes containing 2 ml of PBS, homogenized for 20 seconds in a Brinkmann Homogenizer and placed on ice. The tubes were centrifuged for 5 min. at 1000 g and 100 μl aliquots of supernatant homogenate removed for determination of protein content using the modified Bradford method.
To measure wet and dry weight, 2 cm intestinal segments were weighed, placed in culture tubes, reweighed, then freeze-dried overnight in a Fast-Freeze flask (Labconco) and reweighed.

Female CD1 mice [2] = assay: 5% dextran sulfate induced ulcerative colitis model in mice (Example 2)
From the text: This experiment was designed to test the activity of GLP-2 in ameliorating disease symptoms in an animal model of colitis. A 5% dextran sulfate solution was used to induce ulcerative colitis in test mice (Okayasu et al., 1990, 98:694-702).
Forty female CD1 mice (six-weeks old and approximately 25 g, obtained from Charles River) were used in the experiment. On day 1, the mice were weighed using a Mettler PJ300 scale and randomly allocated to 1 of eight treatment groups. The groups, each consisting of 5 mice housed together, were treated as follows:
These two groups were fed normal drinking water.
Group 1) Ten days of injections (PBS), day 7 to day 17, animals sacrificed day 17.
Group 2) Ten days of injections human (Gly 2) GLP-2 (2.5 μg bid), day 7 to day 17, animals sacrificed day 17.
Groups 3 and 4—Test Group
Drinking water given to these groups contained 5% Dextran sulfate (DS).
Group 3) DS given from day 7 to day 17, PBS injections given from day 7 to day 17, animals sacrificed day 17.
Group 4) DS given from day 7 to day 17, human[Gly^2] GLP-2 (2.5 μg bid) injections given day 7 to day 17, animals sacrificed day 17.
Groups 5 and 6—Test Group
Drinking water contained 5% Dextran sulfate day 2 to day 9, followed by 4 days of normal drinking water. Ten days of injections were started day 4. […]
Dextran sulfate (USB, Cleveland, Ohio, MW 40,000-50,000) was dissolved into double distilled water, and placed into the water bottles. Water bottles were topped up daily. GLP-2 peptide was reconstituted and aliquoted on the day prior to the first day of injection and kept in a −20 C. freezer. Human [Gly^2]GLP-2 (5 mg/mL) was reconstituted in PBS. One microliter of 5N NaOH was required to dissolve the peptide in a volume of 1 ml. The injection volume of 0.5 ml was constant throughout the experiment using ½ cc U-100 Insulin Syringes Becton Dickinson and Company, NJ). Control mice (cage 1) received the same volume (0.5 ml) of phosphate buffered saline (PBS—137 mM NaCl, 2.7 mM KCl, 4.3 mM Na2HPO4.7H2O, 1.4 mM KH2PO4, pH 7.3).
Subcutaneous injections in the right hind quarter began on various days depending on the treatment conditions given above. All injections were twice a day, at 8 am and 6 pm. Mice in cages 1 and 2 were fasted on the day prior to sacrifice. Body weight measurements were made on day 1, day 7, day 12 and the day of sacrifice. The weight and length of the large intestine of each animal was measured after sacrifice.

mice = assay: Mortality in mice exposed to 10% colitis-inducing dextran sulfate (Example 3); details: 10% dextran sulfate in drinking water, 2.5 μg per injection s.c. twice per day, after 9 days; saline group 3 of 10
Experimental: Mice were also treated with 2 subcutaneous injections per day (0.5 ml) of either saline, or [GLY^2]hGLP-2, 2.5 μg per injection. After 9 days, the experiment was stopped.

[3] = 2 cm segment, vs PBS-treated mice, p<0.05
[4] = 5% DS day 7 to day 17, 2.5 μg bid s.c. day 7 to day 17, group 4 vs group 3 (PBS)
[5] = normal drinking water, 2.5 μg bid s.c. for ten days, group 2 vs group 1 (PBS)

Substance	dry weight of intestinal segments from the proximal jejunum (Female CD1 mice [1]; [3])	wet weight of intestinal segments from the proximal jejunum (Female CD1 mice [1]; [3])	weights of the segments obtained from the colon (Female CD1 mice [1]; 2 cm segment, wet and dry weight)	protein content in the colon (Female CD1 mice [1]; compared to PBS-treated mice)	protein content in the jejunum (Female CD1 mice [1]; compared to PBS-treated mice)	body weight through the course of the experiment (Female CD1 mice [2]; [4])	large intestine weight at sacrifice (Female CD1 mice [2]; [4])	large intestine length during experimentally induced colitis (Female CD1 mice [2]; 5% DS day 7 to day 17, 2.5 μg bid s.c., group 4 vs group 3 (PBS))	morbidity, dehydration and reduction in mass of the large intestine caused by induced colitis (Female CD1 mice [2]; agonist given at the same time as 5% DS, day 7 to day 17, group 4 vs group 3)	large intestine length (Female CD1 mice [2]; [5])	post-treatment large intestinal mass (Female CD1 mice [2]; [5])	survival (mice)
rat GLP-2: rat GLP-2, 33 amino acid peptide having the sequence SEQ ID NO: 2; used in Example 1 (HADGSFSDEMNTILDNLATRDFINWLIQTKITD; listed as Rattus sp.)	significantly increased	significantly increased	slightly, but consistently, increased	statistically significant increase	statistically significant increase	–	–	–	–	–	–	–
[Gly^2]hGLP-2: human GLP-2 wherein the alanine at position 2 is replaced by a glycine; DPP-IV resistant analog (HGDGSFSDEMNTILDNLAARDFINWLIQTKITD; Glucagon-like peptide 2; UniProt P01275 146-178, looked up, variant A2G)	–	–	–	–	–	maintain body weight better	significantly heavier large intestines	also exhibited, although to a lesser degree	ameliorates the severe morbidity, dehydration, and reduction in mass of the large intestine	significant increase in large intestine length	causes an increase in large intestinal mass	7 of 10
